From US20240018154A1, “NEW INDAZOLE DERIVATIVES” (Hoffmann-La Roche Inc., priority 2020, published 2024)
pIC50: −log10 of the molar value. Counter-ions that a name gives are not always drawn.

Target: T1, EGFR LRCS (BaF3-LRCS cell line) (Homo sapiens, UniProt P00533, C797S/L858R)
T1 construct: host or cells: BaF3 (BaF3-LRCS engineered line, kept under puromycin)
Test: HTRF Phospho EGFR LRCS assay (cellular)
Type: cell-based
Conditions: BaF3-LRCS cells, 4 hours incubation with compound, Phospho-EGFR HTRF readout
Experimental: HTRF Phospho EGFR LRCS Assay (Cellular)
BaF3-LRCS cell line were obtained from Crownbio (San Diego, CA, USA). Cells were maintained at 37° C., 5% CO2 in RPMI ATCC (Gibco 31870)+2 mM Glutamine+0.5 μg/ml Puromycin supplemented with 10% fetal bovine serum (FBS) (Gibco).
Cells are transferred as above to Greiner Bio-One, Nr. 784-08 micro-titerplate at 20000 cells/well in 12.5 μl of growth medium/well after the plates had been pre-filled with 12.5 nl of DMSO solutions of the to be tested compounds (in dose response) or DMSO only. After spinning the plates at 300×g for 30 seconds the cells were incubated for 4 hours at 37 C, 5% CO2, 95% humidity. The cells were lysed by adding to the compound mix 4 μl/well of the supplemented lysis buffer (Cis-bio, Phospho-EGFR HTRF kit, 64EG1PEH), followed by incubation for 30 min at room temperature with shaking (400 rpm). The plates were then frozen and stored overnight at −80° C. On the next day and after thawing the plates, 4 μl of a mixture of anti-Phospho-EGFR Cryptate and of anti-Phospho-EGFR-d2 antibody solutions prepared in the supplied detection buffer was added to each well. The lidded plates were then incubated for 4 h at room temperature before reading the fluorescence emission at 616 and 665 nm using an Envision reader (Perkin Elmer). Data was analyzed in similar fashion as above using the normalized ratio of the 665 to 616 signals multiplied by 10000.

T1 sequence (P00533 25-1210 C797S/L858R): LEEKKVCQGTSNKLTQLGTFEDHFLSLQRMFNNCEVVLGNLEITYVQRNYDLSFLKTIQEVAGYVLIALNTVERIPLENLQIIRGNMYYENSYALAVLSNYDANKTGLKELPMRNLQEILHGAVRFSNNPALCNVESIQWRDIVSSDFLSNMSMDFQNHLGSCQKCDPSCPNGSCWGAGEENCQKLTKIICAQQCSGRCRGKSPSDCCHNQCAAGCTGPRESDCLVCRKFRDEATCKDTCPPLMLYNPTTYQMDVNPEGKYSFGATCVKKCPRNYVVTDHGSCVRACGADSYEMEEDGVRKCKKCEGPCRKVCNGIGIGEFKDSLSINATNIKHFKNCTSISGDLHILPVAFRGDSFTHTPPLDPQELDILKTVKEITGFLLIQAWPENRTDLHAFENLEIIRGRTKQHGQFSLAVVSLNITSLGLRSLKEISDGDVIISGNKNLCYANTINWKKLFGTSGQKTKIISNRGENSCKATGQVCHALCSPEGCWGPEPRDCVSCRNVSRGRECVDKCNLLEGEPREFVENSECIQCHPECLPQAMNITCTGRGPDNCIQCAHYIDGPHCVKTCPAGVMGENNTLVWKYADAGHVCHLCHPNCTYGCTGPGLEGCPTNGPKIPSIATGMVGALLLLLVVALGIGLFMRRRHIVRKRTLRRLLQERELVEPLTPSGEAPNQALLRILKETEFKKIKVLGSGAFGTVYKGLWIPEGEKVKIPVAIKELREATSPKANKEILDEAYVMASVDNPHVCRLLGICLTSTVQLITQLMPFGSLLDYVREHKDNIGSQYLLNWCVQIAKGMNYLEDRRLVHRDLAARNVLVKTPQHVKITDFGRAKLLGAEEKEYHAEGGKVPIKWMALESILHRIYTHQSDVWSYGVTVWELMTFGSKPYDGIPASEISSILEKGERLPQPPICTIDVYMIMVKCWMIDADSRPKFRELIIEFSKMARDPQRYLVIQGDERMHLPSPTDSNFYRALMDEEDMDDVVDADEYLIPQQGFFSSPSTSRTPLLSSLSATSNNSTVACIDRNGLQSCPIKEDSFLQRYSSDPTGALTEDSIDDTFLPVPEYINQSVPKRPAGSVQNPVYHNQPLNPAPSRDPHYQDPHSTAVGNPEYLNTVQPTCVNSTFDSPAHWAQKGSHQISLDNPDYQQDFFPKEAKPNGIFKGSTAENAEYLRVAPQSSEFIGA

| Compound | pIC50 |
| --- | --- |
| CCN1CC[C@@H](c2ccc(-c3cc(C(F)F)c4cn(C(C(=O)Nc5nccs5)c5ncn6c5C[C@@H](F)C6)nc4c3C)cc2)[C@H](F)C1 (single isomer, unassigned) [Example 2, 2-[4-(Difluoromethyl)-6-[4-[(3S,4S)-1-ethyl-3-fluoro-4-piperidyl]phenyl]-7-methyl-indazol-2-yl]-2-[(6R)-6-fluoro-6,7-dihydro-5H-pyrrolo[1,2-c]imidazol-1-yl]-N-thiazol-2-yl-acetamide or 2-[4-(Difluoromethyl)-6-[4-[(3R,4R)-1-ethyl-3-fluoro-4-piperidyl]phenyl]-7-methyl-indazol-2-yl]-2-[(6R)-6-fluoro-6,7-dihydro-5H-pyrrolo[1,2-c]imidazol-1-yl]-N-thiazol-2-yl-acetamide] | 7.82 |
| Cc1c(-c2ccc(N3CCOCC3)cc2)cc(C(F)F)c2cn(C(C(=O)Nc3nccs3)c3ncn4c3C[C@@H](F)C4)nc12 (stereo partly drawn) [Example 1, 2-[4-(Difluoromethyl)-7-methyl-6-(4-morpholinophenyl)indazol-2-yl]-2-[(6R)-6-fluoro-6,7-dihydro-5H-pyrrolo[1,2-c]imidazol-1-yl]-N-thiazol-2-yl-acetamide] | 8.10 |
| CNCCc1ccc(-c2cc(C(F)F)c3cn(C(C(=O)Nc4nccs4)c4ncn5c4C[C@@H](F)C5)nc3c2C)cc1 (stereo partly drawn) [Example 3, 2-[4-(Difluoromethyl)-7-methyl-6-[4-[2-(methylamino)ethyl]phenyl]indazol-2-yl]-2-[(6R)-6-fluoro-6,7-dihydro-5H-pyrrolo[1,2-c]imidazol-1-yl]-N-thiazol-2-yl-acetamide Hydrochloride] | 7.74 |
| Cc1c(-c2ccc(CCN(C)C)cc2)cc(C(F)F)c2cn(C(C(=O)Nc3nccs3)c3ncn4c3C[C@@H](F)C4)nc12 (stereo partly drawn) [Example 4, 2-[4-(Difluoromethyl)-6-[4-[2-(dimethylamino)ethyl]phenyl]-7-methyl-indazol-2-yl]-2-[(6R)-6-fluoro-6,7-dihydro-5H-pyrrolo[1,2-c]imidazol-1-yl]-N-thiazol-2-yl-acetamide] | 7.96 |
| Cc1c(-c2ccc(OCCN3CCC(CO)CC3)cc2)cc(C(F)F)c2cn(C(C(=O)Nc3nccs3)c3ncn4c3C[C@@H](F)C4)nc12 (stereo partly drawn) [Example 5, 2-[4-(Difluoromethyl)-6-[4-[2-[4-(hydroxymethyl)-1-piperidyl]ethoxy]phenyl]-7-methyl-indazol-2-yl]-2-[(6R)-6-fluoro-6,7-dihydro-5H-pyrrolo[1,2-c]imidazol-1-yl]-N-thiazol-2-yl-acetamide] | 7.72 |
| Cc1c(-c2ccc(CN3CCC(CO)CC3)cc2)cc(C(F)F)c2cn(C(C(=O)Nc3nccs3)c3ncn4c3C[C@@H](F)C4)nc12 (stereo partly drawn) [Example 6, 2-[4-(Difluoromethyl)-6-[4-[[4-(hydroxymethyl)-1-piperidyl]methyl]phenyl]-7-methyl-indazol-2-yl]-2-[(6R)-6-fluoro-6,7-dihydro-5H-pyrrolo[1,2-c]imidazol-1-yl]-N-thiazol-2-yl-acetamide] | 7.80 |
| Cc1c(-c2ccc(CN3CCC(O)CC3)cc2)cc(C(F)F)c2cn(C(C(=O)Nc3nccs3)c3ncn4c3C[C@@H](F)C4)nc12 (stereo partly drawn) [Example 7, 2-[4-(Difluoromethyl)-6-[4-[(4-hydroxy-1-piperidyl)methyl]phenyl]-7-methyl-indazol-2-yl]-2-[(6R)-6-fluoro-6,7-dihydro-5H-pyrrolo[1,2-c]imidazol-1-yl]-N-thiazol-2-yl-acetamide] | 7.85 |
| Cc1c(-c2ccc(N3CCOCC3)cc2)cc(C(F)F)c2cn(C(C(=O)Nc3nccs3)c3ncn4c3CCC4)nc12 (stereo not shown) [Example 8, 2-[4-(Difluoromethyl)-7-methyl-6-(4-morpholinophenyl)indazol-2-yl]-2-(6,7-dihydro-5H-pyrrolo[1,2-c]imidazol-1-yl)-N-thiazol-2-yl-acetamide] | 7.77 |
| Cc1c(-c2ccc(CCN3CCC(CO)CC3)cc2)cc(C(F)F)c2cn(C(C(=O)Nc3nccs3)c3ncn4c3C[C@@H](F)C4)nc12 (stereo partly drawn) [Example 9, 2-[4-(Difluoromethyl)-6-[4-[2-[4-(hydroxymethyl)-1-piperidyl]ethyl]phenyl]-7-methyl-indazol-2-yl]-2-[(6R)-6-fluoro-6,7-dihydro-5H-pyrrolo[1,2-c]imidazol-1-yl]-N-thiazol-2-yl-acetamide] | 7.57 |
| Cc1c(-c2ccc(OCCN3CCC(O)CC3)cc2)cc(C(F)F)c2cn(C(C(=O)Nc3nccs3)c3ncn4c3C[C@@H](F)C4)nc12 (stereo partly drawn) [Example 10, 2-[4-(Difluoromethyl)-6-[4-[2-(4-hydroxy-1-piperidyl)ethoxy]phenyl]-7-methyl-indazol-2-yl]-2-[(6R)-6-fluoro-6,7-dihydro-5H-pyrrolo[1,2-c]imidazol-1-yl]-N-thiazol-2-yl-acetamide] | 7.77 |
| Cc1c(-c2ccc(N3CCC(O)CC3)cc2)cc(C(F)F)c2cn(C(C(=O)Nc3nccs3)c3ncn4c3C[C@@H](F)C4)nc12 (stereo partly drawn) [Example 11, 2-[4-(Difluoromethyl)-6-[4-(4-hydroxy-1-piperidyl)phenyl]-7-methyl-indazol-2-yl]-2-[(6R)-6-fluoro-6,7-dihydro-5H-pyrrolo[1,2-c]imidazol-1-yl]-N-thiazol-2-yl-acetamide] | 8.00 |
| Cc1c(-c2ccc(CN3CCC(C(C)O)CC3)cc2)cc(C(F)F)c2cn(C(C(=O)Nc3nccs3)c3ncn4c3C[C@@H](F)C4)nc12 (stereo partly drawn) [Example 12, 2-[4-(Difluoromethyl)-6-[4-[[4-(1-hydroxyethyl)-1-piperidyl]methyl]phenyl]-7-methyl-indazol-2-yl]-2-[(6R)-6-fluoro-6,7-dihydro-5H-pyrrolo[1,2-c]imidazol-1-yl]-N-thiazol-2-yl-acetamide] | 7.74 |
| Cc1c(-c2ccc(N3CCN4CCC3C4)cc2)cc(C(F)F)c2cn(C(C(=O)Nc3nccs3)c3ncn4c3C[C@@H](F)C4)nc12 (stereo partly drawn) [Example 13, 2-[6-[4-(1,4-Diazabicyclo[3.2.1]octan-4-yl)phenyl]-4-(difluoromethyl)-7-methyl-indazol-2-yl]-2-[(6R)-6-fluoro-6,7-dihydro-5H-pyrrolo[1,2-c]imidazol-1-yl]-N-thiazol-2-yl-acetamide] | 7.77 |
| Cc1c(-c2ccc(CCN3CCC(C(C)O)CC3)cc2)cc(C(F)F)c2cn(C(C(=O)Nc3nccs3)c3ncn4c3C[C@@H](F)C4)nc12 (stereo partly drawn) [Example 14, 2-[4-(Difluoromethyl)-6-[4-[2-[4-(1-hydroxyethyl)-1-piperidyl]ethyl]phenyl]-7-methyl-indazol-2-yl]-2-[(6R)-6-fluoro-6,7-dihydro-5H-pyrrolo[1,2-c]imidazol-1-yl]-N-thiazol-2-yl-acetamide] | 7.80 |
| Cc1c(-c2ccc(C3CC(CN4CCC(CO)CC4)C3)cc2)cc(C(F)F)c2cn(C(C(=O)Nc3nccs3)c3ncn4c3C[C@@H](F)C4)nc12 (stereo partly drawn) [Example 15, 2-[4-(Difluoromethyl)-6-[4-[3-[[4-(hydroxymethyl)-1-piperidyl]methyl]cyclobutyl]phenyl]-7-methyl-indazol-2-yl]-2-[(6R)-6-fluoro-6,7-dihydro-5H-pyrrolo[1,2-c]imidazol-1-yl]-N-thiazol-2-yl-acetamide] | 7.62 |
| Cc1c(-c2ccc(N3CCC(S(C)(=O)=O)CC3)cc2)cc(C(F)F)c2cn(C(C(=O)Nc3nccs3)c3ncn4c3C[C@@H](F)C4)nc12 (stereo partly drawn) [Example 16, 2-[4-(Difluoromethyl)-7-methyl-6-[4-(4-methylsulfonyl-1-piperidyl)phenyl]indazol-2-yl]-2-[(6R)-6-fluoro-6,7-dihydro-5H-pyrrolo[1,2-c]imidazol-1-yl]-N-thiazol-2-yl-acetamide] | 7.80 |
